Patent US9763994B2, “Composition for promoting wound healing” (INDUSTRY-ACADEMIC COOPERATION FOUNDATION, YONSEI UNIVERSITY, priority 2014, dated 2017)

Key:
keratinocytes = assay: Immunocytochemical staining of keratinocytes (peptide infiltration, β-catenin); assay type: cell-based; conditions: FIG. 1
Experimental: (§1) For immunocytochemical staining, keratinocytes or fibroblasts were cultured on a 24-well plate and fixed in 4% paraformaldehyde for 15 minutes. After treating with 0.1% Triton X-100 for 15 minutes so that antibodies can permeate well and blocking with albumin so as to prevent nonspecific antigen-antibody reactions, antigen-antibody reactions were induced by treating with β-catenin antibodies. Then, after inducing antigen-antibody reactions by treating with fluorescence-labeled secondary antibodies that can recognize the antibodies as antigens, the result was observed under a fluorescence microscope.

fibroblasts = assay: Immunocytochemical staining of fibroblasts (peptide infiltration, β-catenin); assay type: cell-based; conditions: FIG. 1
Experimental: as §1

[1] = system: acute wound in a mouse model; assay: Mouse acute wound healing model (wound closure, H&E, immunohistochemical staining); assay type: in vivo, C3H mouse; conditions: for re-epithelialization of the acute wound (H&E staining): C3H mouse wound
Experimental: (A) In order to confirm the wound healing promoting effect of the peptide synthesized in Example 1, hair was removed the back of a 7-week-old C3H mouse and a 1.5 cm×1.5 cm sized wound was made. For a control group, 10 μL of a vehicle (50% ethanol, 20% propylene glycol, 30% water) was applied once a day for a period of 12 days. For test groups, 10 μL of the peptide or valproic acid (VPA) dissolved in the vehicle at concentrations of 100 μM and 500 mM, respectively, was applied. The skin tissue of the experimental mouse was fixed in 4% paraformaldehyde, embedded in paraffin and sliced with a thickness of 4 μm. The sliced tissue was deparaffinized, rehydrated and then stained with hematoxylin (violet) and eosin (pink) for observation of histological structure. For immunohistochemical staining, the skin tissue slice was deparaffinized, rehydrated and then incubated with 10 mM sodium citrate buffer at 121° C. for 15 minutes to recover antigenicity. The slice was blocked with albumin to prevent nonspecific antigen-antibody reactions and then antigen-antibody reactions were induced by treating with β-catenin (1:100), keratin 14 (1:1000) and collagen I (1:500) antibodies used as wound healing markers. Subsequently, after inducing antigen-antibody reactions by treating the slice with fluorescence-labeled secondary antibodies that can recognize the antibodies as antigens, the result was observed using a fluorescence microscope.
(B) In order to compare the wound healing promoting effect of the synthesized peptide with that of the existing drug, 10 μL of a vehicle (50% ethanol, 20% propylene glycol, 30% water), 100 μM PTD-DBM or 1.5 μM fibronectin was applied on a 1.5 cm×1.5 cm sized wound of a 7-week-old C3H mouse once a day for a period of 12 days.

[2] = system: β-catenin, keratin 14, α-SMA, collagen I; assay: Western blotting of mouse wound tissue; assay type: in vivo, C3H mouse; conditions: wound tissue of Test Example 2; versus control; FIG. 3
Experimental: The wound tissue used in Test Example 2 was lysed with RIPA buffer and proteins were isolated on 10% SDS polyacrylamide gel and then transferred onto a membrane. The membrane was blocked using 5% nonfat dry skim milk and then incubated with β-catenin (1:1000), α-SMA (1:1000), keratin 14 (1:1000) and collagen I (1:2000) antibodies. After inducing antigen-antibody reactions by adding enzyme-conjugated secondary antibodies that can recognize the antibodies as antigens, the result was observed using a LAS image analyzer.

collagen [3] = assay: Collagen staining of mouse acute wound tissue (Masson's trichrome, picrosirius red, van Gieson); assay type: in vivo, C3H mouse; conditions: wound tissue of Test Example 2; FIG. 4A
Experimental: (A) The mouse tissue used in Test Example 2 was fixed in 4% paraformaldehyde, embedded in paraffin and sliced with a thickness of 4 μm. The sliced tissue was deparaffinized, rehydrated and then subjected to van Gieson staining, Masson's trichrome staining and picrosirius red staining in order to evaluate the degree of collagen synthesis. Van Gieson staining was conducted by immersing the slide in Weigert's solution for 10 minutes and then in picro fuchsin solution for 2 minutes. Masson's trichrome staining was conducted by immersing the slide in Weigert's iron hematoxylin solution for 10 minutes and then in Biebrich scarlet/acid fuchsin and aniline blue for 5 minutes, respectively. Picrosirius red staining was conducted by immersing the slide in Weigert's solution for 8 minutes and then in picrosirius red for 1 hour.

collagen [4] = assay: Hydroxproline assay of mouse acute wound tissue; assay type: in vivo, C3H mouse; conditions: wound tissue of Test Example 2; absorbance at 550 nm; FIG. 4B
Experimental: (B) The tissue used in Test Example 2 was dried in an incubator at 60° C. and then hydrolyzed at 110° C. with 6 N HCl. After adding chloramine T and Ehrlich's reagent to the hydrolyzed tissue, absorbance was measured at 550 nm using the FLUOstar OPTIMA luminometer.

[5] = 10 μL topical once a day for 12 days, peptide 100 μM, VPA 500 mM

Row | Molecule | β-catenin (keratinocytes) | β-catenin (fibroblasts) | wound healing effect compared with fibronectin ([1]; 100 μM PTD-DBM vs 1.5 μM fibronectin, 10 μL once a day for 12 days, C3H mouse, FIG. 2B) | healing of acute wound ([1]; 1.5 cm×1.5 cm wound, 7-week-old C3H mouse, 10 μL topical once a day for 12 days, peptide 100 μM, VPA 500 mM, FIGS. 2A and 2B) | re-epithelialization of the acute wound (H&E staining) [1, 5] | wound healing markers β-catenin, keratin 14, α-SMA or collagen I (western blotting) [2] | collagen in acute wound tissue (Masson's trichrome, picrosirius red and van Gieson staining) (collagen [3]) | collagen in acute wound tissue (hydroxproline assay) (collagen [4])
1 | RRRRRRRRGGGGRKTGHQICKFRKCK-(FITC) [PTD-DBM] | increased β-catenin in a concentration-dependent manner | increased β-catenin in a concentration-dependent manner | excellent when compared with that of fibronectin | could quickly heal the acute wound | quick re-epithelialization | increased as compared to the control | increased collagen | increased collagen
2 | CCCC(CCC)C(=O)O [VPA, valproic acid, reference compound] |  |  |  |  | quick re-epithelialization | increased as compared to the control | increased collagen | increased collagen
